Assay [1] has as its system Puccinia recondita f. Sp. Tritici. The experiment in a line: Puccinia recondita f. sp. tritici / wheat / leaf disc preventative (brown rust). Type of assay: in vivo, Puccinia recondita f. sp. tritici on wheat cv. Kanzler. The note with it: foliar, 200 ppm in the applied formulation, inoculated 1 day after application, assessed 7 to 9 days after application, vs untreated control leaf disks, read-out: disease control. The protocol: Leaf disks or leaf segments of various plant species are cut from plants grown in a greenhouse. The cut leaf disks or segments are placed in multiwell plates (24-well format) onto water agar. The leaf disks are sprayed with a test solution before (preventative) or after (curative) inoculation. Compounds to be tested are prepared as DMSO solutions (max. 10 mg/ml) which are diluted to the appropriate concentration with 0.025% Tween20 just before spraying. The inoculated leaf disks or segments are incubated under defined conditions (temperature, relative humidity, light, etc.) according to the respective test system. A single evaluation of disease level is carried out 3 to 14 days after inoculation, depending on the pathosystem. Percent disease control relative to the untreated check leaf disks or segments is then calculated. Wheat leaf segments cv. Kanzler were placed on agar in multiwell plates (24-well format) and sprayed with the formulated test compound diluted in water. The leaf disks were inoculated with a spore suspension of the fungus 1 day after application. The inoculated leaf segments were incubated at 19′C and 75% relative humidity (rh) under a light regime of 12 hours light/12 hours darkness in a climate cabinet and the activity of a compound was assessed as percent disease control compared to untreated when an appropriate level of disease damage appears in untreated check leaf segments (7 to 9 days after application). The following compounds at 200 ppm in the applied formulation give at least 80% disease control in this test when compared to untreated control leaf disks under the same conditions, which show extensive disease development.

The subject of assay [2] is Glomerella Lacenarium (Colletotrichum lacenarium). The experiment in a line: Glomerella lagenarium (Colletotrichum lagenarium) liquid culture / cucumber / preventative (anthracnose). Particulars: 20 ppm in the applied formulation, liquid culture in PDB, 24° C., inhibition of growth measured photometrically 3 to 4 days after application, vs untreated control, read-out: disease control. Type of assay: cell-based. The method, then:
Mycelia fragments or conidia suspensions of a fungus prepared either freshly from liquid cultures of the fungus or from cryogenic storage, are directly mixed into nutrient broth. DMSO solutions of the test compound (max. 10 mg/ml) are diluted with 0.025% Tween20 by a factor of 50 and 10 μl of this solution is pipetted into a microtiter plate (96-well format). The nutrient broth containing the fungal spores/mycelia fragments is then added to give an end concentration of the tested compound. The test plates are incubated in the dark at 24° C. and 96% relative humidity. The inhibition of fungal growth is determined photometrically after 2 to 7 days, depending on the pathosystem, and percent antifungal activity relative to the untreated check is calculated.
Conidia of the fungus from cryogenic storage are directly mixed into nutrient broth (PDB—potato dextrose broth). After placing a (DMSO) solution of test compound into a microtiter plate (96-well format), the nutrient broth containing the fungal spores is added. The test plates are incubated at 24° C. and the inhibition of growth is measured photometrically 3 to 4 days after application.
The following compounds at 20 ppm in the applied formulation give at least 80% disease control in this test when compared to untreated control under the same conditions, which show extensive disease development.

The test system of assay [3] is Puccinia recondita f. Sp. Triticil. The experiment in a line: Puccinia recondita f. sp. tritici / wheat / leaf disc curative (brown rust). The class given is in vivo, Puccinia recondita f. sp. tritici on wheat cv. Kanzler. Particulars: foliar, 200 ppm in the applied formulation, applied 1 day after inoculation, assessed 6 to 8 days after application, vs untreated control leaf disks, read-out: disease control. The method, then: Leaf disks or leaf segments of various plant species are cut from plants grown in a greenhouse. The cut leaf disks or segments are placed in multiwell plates (24-well format) onto water agar. The leaf disks are sprayed with a test solution before (preventative) or after (curative) inoculation. Compounds to be tested are prepared as DMSO solutions (max. 10 mg/ml) which are diluted to the appropriate concentration with 0.025% Tween20 just before spraying. The inoculated leaf disks or segments are incubated under defined conditions (temperature, relative humidity, light, etc.) according to the respective test system. A single evaluation of disease level is carried out 3 to 14 days after inoculation, depending on the pathosystem. Percent disease control relative to the untreated check leaf disks or segments is then calculated.
Wheat leaf segments cv. Kanzler are placed on agar in multiwell plates (24-well format). The leaf segments are then inoculated with a spore suspension of the fungus. Plates were stored in darkness at 19° C. and 75% relative humidity. The formulated test compound diluted in water was applied 1 day after inoculation. The leaf segments were incubated at 19° C. and 75% relative humidity under a light regime of 12 hours light/12 hours darkness in a climate cabinet and the activity of a compound was assessed as percent disease control compared to untreated when an appropriate level of disease damage appears in untreated check leaf segments (6 to 8 days after application).
The following compounds at 200 ppm in the applied formulation give at least 80% disease control in this test when compared to untreated control leaf disks under the same conditions, which show extensive disease development.

In the case of `CC1(C(=O)NCc2ccc(-c3noc(C(F)(F)F)n3)cc2Cl)COC1` [Compound 1.84, N-[[2-chloro-4-[5-(trifluoromethyl)-1,2,4-oxadiazol-3-yl]phenyl]methyl]-3-methyl-oxetane-3-carboxamide], the pest or weed control at 200 ppm in assay [1] is not below 80%. In addition, the inhibition of growth at 20 ppm in assay [2] is not below 80%.

Turning to `CC1(C(=O)NCc2ccc(-c3noc(C(F)(F)F)n3)cn2)CC1` [Compound 1.90, 1-methyl-N-[[5-[5-(trifluoromethyl)-1,2,4-oxadiazol-3-yl]-2-pyridyl]methyl] cyclopropanecarboxamide], the pest or weed control at 200 ppm in assay [1] and in assay [3] was not below 80% throughout. In assay [2], the inhibition of growth at 20 ppm is not below 80%.

On to `O=C(NCc1ccc(-c2noc(C(F)(F)F)n2)cn1)C1CCC1` [Compound 1.88, N-[[5-[5-(trifluoromethyl)-1,2,4-oxadiazol-3-yl]-2-pyridyl]methyl] cyclobutanecarboxamide], for which the pest or weed control at 200 ppm in assay [1] and in assay [3] was not below 80% throughout. The inhibition of growth at 20 ppm in assay [2] was not below 80%.

Consider `CC1(C(=O)NCc2ccc(-c3noc(C(F)(F)F)n3)cc2F)COC1` [Compound 1.71, N-[[2-fluoro-4-[5-(trifluoromethyl)-1,2,4-oxadiazol-3-yl]phenyl]methyl]-3-methyl-oxetane-3-carboxamide], for which the pest or weed control at 200 ppm in assay [1] and in assay [3] was not below 80% each time. For the same molecule, the inhibition of growth at 20 ppm in assay [2] is not below 80%.

As to `O=C(NCc1ccc(-c2noc(C(F)(F)F)n2)cc1F)C1CCC1` [Compound 1.63, N-[[2-fluoro-4-[5-(trifluoromethyl)-1,2,4-oxadiazol-3-yl]phenyl]methyl] cyclobutanecarboxamide], the pest or weed control at 200 ppm in assay [1] and in assay [3] was not below 80% throughout. Moreover, in assay [2], the inhibition of growth at 20 ppm is not below 80%.

As for `O=C(NCc1ccc(-c2noc(C(F)(F)F)n2)cc1Cl)C1CC1` [Compound 1.81, N-[[2-chloro-4-[5-(trifluoromethyl)-1,2,4-oxadiazol-3-yl]phenyl]methyl] cyclopropanecarboxamide], the inhibition of growth at 20 ppm in assay [2] was not below 80%.

Turning to `Cc1cc(C(=O)NCc2ccc(-c3noc(C(F)(F)F)n3)cc2)c(C)o1` [Compound 1.41, 2,5-dimethyl-N-[[4-[5-(trifluoromethyl)-1,2,4-oxadiazol-3-yl]phenyl]methyl]furan-3-carboxamide], the pest or weed control at 200 ppm in assay [1] and in assay [3] was not below 80% each time.

Take `O=C(NCc1ccc(-c2noc(C(F)(F)F)n2)c(F)c1)C1CCOC1` (stereo not shown) [Compound 1.68, N-[[3-fluoro-4-[5-(trifluoromethyl)-1,2,4-oxadiazol-3-yl]phenyl]methyl] tetrahydrofuran-3-carboxamide]: the pest or weed control at 200 ppm in assay [1] and in assay [3] was not below 80% each time. Further, in assay [2], the inhibition of growth at 20 ppm was not below 80%.

Turning to `O=C(NCc1ccc(-c2noc(C(F)(F)F)n2)cc1)c1c(Cl)cccc1Cl` [Compound 1.42, 2,6-dichloro-N-[[4-[5-(trifluoromethyl)-1,2,4-oxadiazol-3-yl]phenyl]methyl]benzamide], in assay [1], the pest or weed control at 200 ppm is not below 80%.

As for `O=C(NCc1ccc(-c2noc(C(F)(F)F)n2)cc1F)C1CCOC1` (stereo not shown) [Compound 1.70, N-[[2-fluoro-4-[5-(trifluoromethyl)-1,2,4-oxadiazol-3-yl]phenyl]methyl] tetrahydrofuran-3-carboxamide], the pest or weed control at 200 ppm in assay [1] and in assay [3] was not below 80% in each case. Also, the inhibition of growth at 20 ppm in assay [2] is not below 80%.

For the molecule `O=C(CC1CC1)NCc1ccc(-c2noc(C(F)(F)F)n2)cc1Cl` [Compound 1.74, N-[[2-chloro-4-[5-(trifluoromethyl)-1,2,4-oxadiazol-3-yl]phenyl]methyl]-2-cyclopropyl-acetamide], the inhibition of growth at 20 ppm in assay [2] is not below 80%.

For the molecule `O=C(NCc1ccc(-c2noc(C(F)(F)F)n2)cc1Cl)C1CCCO1` (stereo not shown) [Compound 1.50, N-[[2-chloro-4-[5-(trifluoromethyl)-1,2,4-oxadiazol-3-yl]phenyl]methyl]tetrahydrofuran-2-carboxamide], the pest or weed control at 200 ppm in assay [1] and in assay [3] was not below 80% each time. For the same molecule, the inhibition of growth at 20 ppm in assay [2] is not below 80%.

Take `CC1(C(=O)NCc2ccc(-c3noc(C(F)(F)F)n3)cc2Cl)CC1` [Compound 1.79, N-[[2-chloro-4-[5-(trifluoromethyl)-1,2,4-oxadiazol-3-yl]phenyl]methyl]-1-methyl-cyclopropanecarboxamide]: the inhibition of growth at 20 ppm in assay [2] was not below 80%.

`COc1cc(-c2noc(C(F)(F)F)n2)ccc1CNC(=O)C1CCCO1` (stereo not shown) [Compound 1.51, N-[[2-methoxy-4-[5-(trifluoromethyl)-1,2,4-oxadiazol-3-yl]phenyl]methyl]tetrahydrofuran-2-carboxamide]: the inhibition of growth at 20 ppm in assay [2] is not below 80%.

Consider `O=C(NCc1ccc(-c2noc(C(F)(F)F)n2)cc1F)c1ccccc1Cl` [Compound 1.48, 2-chloro-N-[[2-fluoro-4-[5-(trifluoromethyl)-1,2,4-oxadiazol-3-yl]phenyl]methyl]benzamide], for which, in assay [1], the pest or weed control at 200 ppm is not below 80%. The inhibition of growth at 20 ppm in assay [2] was not below 80%.

In the case of `COc1ccc(C2(C(=O)NCc3ccc(-c4noc(C(F)(F)F)n4)cc3)CC2)cc1` [Compound 1.38, 1-(4-methoxyphenyl)-N-[[4-[5-(trifluoromethyl)-1,2,4-oxadiazol-3-yl]phenyl]methyl] cyclopropanecarboxamide], the pest or weed control at 200 ppm in assay [1] was not below 80%. Besides, the inhibition of growth at 20 ppm in assay [2] was not below 80%.

`O=C(CC1CC1)NCc1ccc(-c2noc(C(F)(F)F)n2)cn1` [Compound 1.87, 2-cyclopropyl-N-[[5-[5-(trifluoromethyl)-1,2,4-oxadiazol-3-yl]-2-pyridyl]methyl]acetamide]: the pest or weed control at 200 ppm in assay [1] and in assay [3] was not below 80% in each case. Moreover, the inhibition of growth at 20 ppm in assay [2] was not below 80%.

In the case of `O=C(NCc1ccc(-c2noc(C(F)(F)F)n2)cc1Cl)C1CCOC1` (stereo not shown) [Compound 1.82, N-[[2-chloro-4-[5-(trifluoromethyl)-1,2,4-oxadiazol-3-yl]phenyl]methyl] tetrahydrofuran-3-carboxamide], the inhibition of growth at 20 ppm in assay [2] is not below 80%.

Regarding `O=C(NCc1ccc(-c2noc(C(F)(F)F)n2)cc1C(F)(F)F)C1CCCO1` (stereo not shown) [Compound 1.52, N-[[2-(trifluoromethyl)-4-[5-(trifluoromethyl)-1,2,4-oxadiazol-3-yl]phenyl]methyl]tetrahydrofuran-2-carboxamide], the inhibition of growth at 20 ppm in assay [2] was not below 80%.

Take `O=C(NCc1ccc(-c2noc(C(F)(F)F)n2)cc1)c1ccccc1C(F)(F)F` [Compound 1.43, 2-(trifluoromethyl)-N-[[4-[5-(trifluoromethyl)-1,2,4-oxadiazol-3-yl]phenyl]methyl]benzamide]: the pest or weed control at 200 ppm in assay [1] is not below 80%.

For the origin of these results see patent US20180368410A1, “MICROBIOCIDAL OXADIAZOLE DERIVATIVES” (SYNGENTA PARTICIPATIONS AG, priority 2015, published 2018).
